“Also recorded” adds a separate entry of the source.
Tests used:
Assay type in all cases: physicochemical
[1] = Physical stability upon exposure to accelerated aging conditions (AAC, 40° C./75% RH), re-analysis by HT-XRPD
[2] = Physical stability of solid forms upon drying under vacuum, HT-XRPD
Procedure: (§1) Amorphous voruciclib oxalate salt, generated by freeze-drying, was used to start the thermocycling experiments. Suspensions were prepared in the selected solvent systems at RT. Subsequently, the mixtures were subjected to a temperature profile. After the temperature profile, the solids were separated from the solutions by centrifugation and were dried at ambient conditions and under deep vacuum before being harvested and analyzed by HT-XRPD. The liquid phases were also dried under deep vacuum before being harvested and analyzed by HT-XRPD. All solids were exposed to AAC (40° C./75% RH, 2 days).
(§2) After the temperature profile, the solids were separated from the liquids by centrifugation and the solid phase was dried at ambient conditions and under deep vacuum (5 mbar) before being harvested and analyzed by HT-XRPD. The liquid phases were dried under deep vacuum (5 mbar) and the recovered solids were analyzed by HT-XRPD. All solids were then exposed to accelerated aging conditions (40° C./75% RH, 2 days) followed by HT-XRPD re-analysis.
as §1, with “voruciclib phosphate” for “voruciclib oxalate”, “profile. Upon completion of” for “profile. After”, “dried under” for “dried at”
as §2, with “dried under” for “dried at”, “(5 mbar, 18 h)” for “(5 mbar)”
Amorphous voruciclib malonate salt, generated by freeze-drying, was used to start the thermocycling experiments. Suspensions were prepared in the selected solvent systems at RT and were subjected to three thermocycles between 50 and 5° C., followed by aging at 25° C. for 3 days. Upon completion of the aging time, the solids were separated from the liquids by centrifugation and they were dried at ambient conditions and under deep vacuum (5 mbar) before being harvested and analyzed by HT-XRPD.
After the temperature profile the solids were separated from the solution by centrifugation and they were dried at ambient conditions and under deep vacuum before being harvested and analyzed by HT-XRPD.

[3] = Dynamic Vapor Sorption (DVS) hygroscopicity
Procedure: (§3) Differences in hygroscopicity (moisture uptake) of the various forms of a solid material provided a measure of their relative stability at increasing relative humidity. Moisture sorption isotherms of small samples were obtained using a DVS-1 system from Surface Measurement Systems (London, UK); this instrument is suitable for use with a few milligrams of sample, with an accuracy of 0.1 μg. The relative humidity was varied during sorption-desorption-sorption (45-95-0-45% RH) at a constant temperature of 25° C. Weight equilibration per step was set at dm/dt <0.0002 for a minimum of 1 hour or maximum of 6 hours. Afterwards the sample was measured by HT-XRPD.
The hygroscopicity was classified according to the European Pharmacopoeia Hygroscopicity classification.
as §3, with “(40-95-0-40%” for “(45-95-0-45%”
as §3, with “use with as little as a few” for “use with a few”
The hygroscopicity of Mao1 was determined by DVS. The powder was exposed to a RH profile consisting of sorption/desorption/sorption cycles (40-95-0-40% RH) performed at 25° C. The water vapor uptake gained during the sorption half-cycle was 0.75%.

[4] = Qualitative solubility determination in water at room temperature, with observation of gel formation
Procedure: The aqueous solubility of Oxa2 (starting material) was assessed by the qualitative solubility determination approach. To 5.4 mg of Oxa2, water was added in steps of 50 μl until the material was dissolved (Exp. ID: SAS1). Visual inspection by the naked eye was used to decide whether complete dissolution occurred.
After the addition of 7.5 ml water, Oxa2 was not dissolved in water at room temperature. The suspension was heated to 50° C. upon which complete dissolution occurred, as indicated by a clear solution.
The aqueous solubility of Pho1 (Exp. ID: TCP23) was assessed by the qualitative solubility determination approach. To 5.6 mg of Pho1, water was added in steps of 50 μl until the material was dissolved (Exp. ID: SAS2). Visual inspection by the naked eye was used to decide whether complete dissolution occurred. After the addition of 700 μl water, Pho1 was not dissolved in water at room temperature whereas after a subsequent addition of 200 μl water (900 μl in total), the material completely dissolved.
The solubility of Mao1 in water was determined by adding small aliquots of water to the material until it was dissolved.

Solid forms Ambient AAC ([1]; oxalate salt thermocycling, ambient-dried solids after AAC (40° C./75% RH, 2 days), HT-XRPD): Oxa2
Solid forms ML AAC ([1]; oxalate salt thermocycling, solids from evaporated mother liquor after AAC (40° C./75% RH, 2 days), HT-XRPD): Oxa2
Solid forms Vacuum AAC ([1]; oxalate salt thermocycling, vacuum-dried solids after AAC (40° C./75% RH, 2 days), HT-XRPD): Oxa2
Solid forms Vacuum ([2]; oxalate salt thermocycling solids, form after drying under deep vacuum (5 mbar, 18 h), HT-XRPD, label = ambient-dried form): Oxa2
Water uptake ([3]; DVS, 25° C./80% RH): approximately 2.4%
Hygroscopicity classification ([3]; European Pharmacopoeia classification, water uptake at 25° C./80% RH): moderately hygroscopic
Solid form recovered after DVS analysis ([3]; XRPD after sorption-desorption-sorption cycle): Oxa2 was recovered
Solubility in water at room temperature ([4]; qualitative determination by adding aliquots of water, visual): < 100 µg/mL
SMILES: CN1CC[C@@H](c2c(O)cc(O)c3c(=O)cc(-c4ccc(C(F)(F)F)cc4Cl)oc23)[C@@H]1CO.O=C(O)C(=O)O [Oxa2]
Physical stability upon exposure to AAC ([1]; 40° C./75% RH, 2 days, HT-XRPD before and after): stable when exposed to advanced aging conditions; also recorded: physically stable upon exposure to AAC
Physical stability upon drying under deep/high vacuum ([2]; oxalate, phosphate, malonate forms, 5 mbar, 18 h): stable under vacuum conditions; also recorded: physically stable
Solubility classification in water ([4]; USP classification, room temperature): practically insoluble (solubility <0.1 mg/mL)
Behaviour upon addition of water (gel formation) ([4]; small amount of water added to solid): No indication of gel-formation was observed

Source: patent publication US12421216B2, “Voruciclib polymorphs and methods of making and using thereof” (MEI PHARMA, INC., priority 2019, dated 2025)
